Experimental data taken from patent publication US20240277700A1, “COMPOSITIONS AND METHODS FOR TREATING AND PREVENTING INTERSTITIAL CYSTITIS” (Hista RX LLC, priority 2021, published 2024).

Assays:
[1] = system: patient with interstitial cystitis; assay: Example 2: case report, patient with chronic interstitial cystitis and IBS-diarrhea; details: person; before the combination
[2] = system: patient with painful bladder syndrome; assay: Example 3: case report, patient with chronic painful bladder syndrome; type: in vivo, human; details: person; prior treatment without the combination
patients with IC = details: cited from earlier work

With `COc1ccc2nc([S@@+]([O-])Cc3ncc(C)c(OC)c3C)[nH]c2c1` [Esomeprazole] the “resolution of urologic and/or gastrointestinal conditions by previous medications” value [1] was “without resolution”.

In the case of `OCCOCCN1CCN(C(c2ccccc2)c2ccc(Cl)cc2)CC1` (centres unmarked) [Hydroxyzine], the “symptomatic relief by prior treatment” value [2] is listed as “insufficient” and the “benefit in the treatment of IC” value (patients with IC; monotherapy) is listed as “some limited benefit”.

For `CN/C(=N/CCSCc1nc[nH]c1C)NC#N` [cimetidine], the “symptomatic relief of IC” value (patients with IC; monotherapy 300 mg bid (600 mg daily) for one month, case series of 9 patients) is given as “effective”.

For Sucralfate, the “resolution of urologic and/or gastrointestinal conditions by previous medications” value [1] was “without resolution”.
